{
  "source": "patent US20090181942A1",
  "about": "“TRICYCLIC COMPOUNDS” (DAIICHI SANKYO COMPANY, LIMITED, priority 2005, published 2009)",
  "key": {"rat squalene synthetase": {"molecular_target": "T1, rat squalene synthetase (Rattus norvegicus, UniProt Q02769)", "T1 construct": "the final sediment thus obtained was used as a microsomal fraction for the measurement of enzymatic activity; from tissue; host or cells: liver of eight-week-old SD male rats, washed 105,000 x g microsomal fraction", "T1 sequence (Q02769 1-416)": "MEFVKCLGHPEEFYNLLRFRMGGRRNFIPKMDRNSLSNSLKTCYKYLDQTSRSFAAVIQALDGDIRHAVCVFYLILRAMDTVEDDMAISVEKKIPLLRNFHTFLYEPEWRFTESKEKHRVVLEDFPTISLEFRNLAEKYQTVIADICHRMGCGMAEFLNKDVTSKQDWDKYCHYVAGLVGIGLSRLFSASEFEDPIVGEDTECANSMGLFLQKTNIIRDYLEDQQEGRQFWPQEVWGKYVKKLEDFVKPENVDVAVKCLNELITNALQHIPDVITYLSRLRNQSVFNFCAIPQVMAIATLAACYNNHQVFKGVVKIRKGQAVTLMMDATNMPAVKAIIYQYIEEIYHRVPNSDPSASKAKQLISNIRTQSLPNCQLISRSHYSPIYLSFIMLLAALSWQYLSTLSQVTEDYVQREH", "experiment": "Rat squalene synthetase inhibitory activity (rat liver microsomal fraction, [3H]farnesyl-pyrophosphate)", "format": "biochemical", "conditions": "rat liver microsomal fraction 30 μg/mL, 5 μM [3H]farnesyl-pyrophosphate, 37° C., 20 minutes; read-out: IC50 (squalene synthetase inhibitory activity: concentration inhibiting 50% of radioactivity incorporated into squalene)", "description": "1. Rat Squalene Synthetase Inhibitory Activity\n(1) Preparation of Enzyme Source\nAs an enzyme source, a microsomal fraction prepared from a rat liver was employed. First, eight-week-old SD male rats were subjected to laparotomy under anesthesia with pentobarbital sodium. […] To the liver thus obtained were added 0.3M sucrose, 1 mM dithiothreitol (DTT), 1 mM sodium ethylenediamine tetraacetate (EDTA) and various protease inhibitors. The resulting mixture was homogenized in the presence of a 10 mM phosphate buffer adjusted to pH 7.4 and centrifuged for 5 minutes at 2,000×g and for 15 minutes at 10,000×g. As the protease inhibitor, phenylmethanesulfonyl fluoride (PMSF), leupeptin and aprotinin were added to give the final concentrations of 1 mM, 10 μM, and 5 μg/mL, respectively. The supernatant after centrifugation was centrifuged further at 105,000×g for 60 minutes. The sediment thus obtained was suspended in a 10 mM phosphate buffer (pH 7.4) containing 1 mM DTT, 1 mM EDTA, and the above-described protease inhibitors and the resulting suspension was centrifuged at 105,000×g for 30 minutes, which operation was performed twice. After washing, the final sediment thus obtained was used as a microsomal fraction for the measurement of enzymatic activity.\n(2) Measurement of Squalene Synthetase Inhibitory Activity\nSqualene synthetase activity was measured in accordance with the method of Schechter, et al., described in Journal of Biological Chemistry, 267, 8628-8635 (1992). Described specifically, the compound of the present invention dissolved in water or dimethylsulfoxide (DMSO) was added to an enzyme reaction mixture (total amount: 50 μl) containing 5 mM reduced nicotinamide adenine dinucleotide phosphate (NADPH), 5 mM 3-[(3-cholamidopropyl)dimethylammonio]propanesulfonic acid (CHAPS), 10 mM potassium fluoride, 10 mM magnesium chloride, 10 mM DTT, 1 μM/mL NB-598 (squalene epoxydase inhibitor, Journal of Biological Chemistry, 265, 18075-180788 (1990)), 50 mM HEPES buffer (pH 7.4)), 30 μg/mL of the rat liver microsomal fraction, and 5 μM [^3H] farnesyl-pyrophosphate and the resulting mixture was reacted at 37° C. for 20 minutes (enzyme reaction was started by adding [^3H]farnesyl-pyrophosphate to the enzyme reaction mixture which had been incubated in advance at 37° C. for 10 minutes). To the enzyme reaction mixture was added 5 μl of 1M EDTA (pH 9.2) to terminate the enzyme reaction, followed by the addition of 5 μl of a 0.5% squalene ethanol solution. After spotting of a 40 μl portion of the resulting mixture on a plastic sheet for thin layer chromatography, development with 5% toluene-95% hexane and drying, these pots were visualized by exposure to iodine vapor and the band of squalene was identified. The spots were cut out with scissors and put in a vial container. To the container was added 10 mL of Aquasol-2 (product of New England Nuclear Research Products, USA) and radioactivity was measured by a liquid scintillation counter. The squalene synthetase inhibitory activity was expressed as a concentration (IC50) of the compound inhibiting 50% of radioactivity incorporated into squalene."}, "[1]": {"tested_on": "liver-cholesterol synthesis", "experiment": "Rat single-dose liver-cholesterol synthesis inhibitory effect", "format": "in vivo", "conditions": "Wistar male rats, 3 mg/kg orally, 14C-mevalonic acid i.p. one hour later, liver taken one hour after that, relative to control group", "description": "2. Rat Single-Dose Liver-Cholesterol Synthesis Inhibitory Effect\nA rat single-dose liver-cholesterol synthesis inhibitory effect was measured as described below.\nTo each the compounds of the present invention was added a necessary amount of a 0.5% methyl cellulose solution immediately before use. Then, an equivalent molar amount of sodium hydroxide or sodium hydrogen carbonate was added to dissolve or suspend it in the resulting solution. To 6-week-old Wistar male rats were orally administered each of the compounds of the present invention (3 mg/kg), while only a 0.5% methyl cellulose solution was administered to a control group. One hour later, physiological saline of mevalonic acid (5 μCi/5 mL/kg) labeled with a radioisotope ^14C was intraperitoneally administered. The rats were sacrificed one hour later. To 1 g of the liver thus obtained from the rats was added 5 mL of a 15% KOH ethanol solution and the resulting mixture was left to stand for 15 hours. After heating at 75° C. for 2 hours, the reaction mixture was extracted with 5 mL of water and 10 mL of petroleum ether. The petroleum ether layer was collected, evaporated to dryness and then dissolved in 50 μl of a chloroform:acetone=2:1 solution. The cholesterol band was separated by silica gel thin layer chromatography (Art.5748, toluene:ethyl acetate=3:1) and cut out. It was put in a vial container, followed by the addition of 10 mL of Aquasol-2 (product of Packard BioScience Company). The radioactivity was measured using a liquid scintillation counter. A ratio of the radioactivity relative to that of a control group was determined and liver-cholesterol synthesis inhibitory activity (%) was calculated."}},
  "note": "pIC50: −log10 of the molar value.",
  "data": [
    {"smiles": "COc1cccc([C@H]2O[C@H](Cc3ncc(CCC(=O)O)s3)c3nnc(C(F)(F)F)n3-c3ccc(Cl)cc32)c1OC", "note": "(relative stereo) [Example 322, 3-({2-[(trans)-8-Chloro-6-(2,3-dimethoxyphenyl)-1-(trifluoromethyl)-4H,6H-[1,2,4]triazolo[4,3-a][4,1]benzoxazepin-4-yl]methyl}-1,3-thiazol-5-yl)propanoic Acid]", "values": [
      {"measurement": "pIC50", "setting": "rat squalene synthetase", "value": 8.34},
      {"measurement": "Liver-cholesterol synthesis inhibitory effect", "setting": "[1]", "value": 76, "unit": "%"}
    ]},
    {"smiles": "COC(=O)CCc1cnc(C[C@H]2S[C@H](c3cccc(OC)c3OC)c3cc(Cl)ccc3-n3c2nnc3C(F)(F)F)s1", "note": "(relative stereo) [Example 330, Methyl 3-({2-[(trans)-8-chloro-6-(2,3-dimethoxyphenyl)-1-(trifluoromethyl)-4H,6H-[1,2,4]triazolo[4,3-a][4,1]benzothiazepin-4-yl]methyl}-1,3-thiazol-5-yl)propanoate]", "values": [
      {"measurement": "pIC50", "setting": "rat squalene synthetase", "value": 8.31},
      {"measurement": "Liver-cholesterol synthesis inhibitory effect", "setting": "[1]", "value": 75, "unit": "%"}
    ]},
    {"smiles": "COc1cccc(C2SC(CC(=O)N3CCC(CC(=O)O)CC3)c3nnc(C(F)(F)F)n3-c3ccc(Cl)cc32)c1OC", "note": "(single isomer, unassigned) [Example 343, 2-(1-{2-[8-Chloro-6-(2,3-dimethoxyphenyl)-1-(trifluoromethyl)-4H,6H-[1,2,4]triazolo[4,3-a][4,1]benzothiazepin-4-yl]acetyl}-4-piperidinyl)acetic Acid]", "values": [
      {"measurement": "pIC50", "setting": "rat squalene synthetase", "value": 8.12},
      {"measurement": "Liver-cholesterol synthesis inhibitory effect", "setting": "[1]", "value": 80, "unit": "%"}
    ]},
    {"smiles": "COc1cccc([C@H]2O[C@H](CCn3nnc(CC(=O)O)n3)c3cccn3-c3c(F)cc(Cl)cc32)c1OC", "note": "[Example 21, 2-(2-{2-[(4R,6S)-8-Chloro-6-(2,3-dimethoxyphenyl)-10-fluoro-4H,6H-pyrrolo[1,2-a][4,1]benzoxazepin-4-yl]ethyl}-2H-1,2,3,4-tetrazol-5-yl)acetic Acid]", "values": [
      {"measurement": "Liver-cholesterol synthesis inhibitory effect", "setting": "[1]", "value": 68, "unit": "%"}
    ]},
    {"smiles": "O=C(O)CC1CCN(C(=O)CC2OC(c3cccc4ccccc34)c3cc(Cl)ccc3-n3cccc32)CC1", "note": "(stereo not drawn) [Example 210, 2-(1-{2-[8-Chloro-6-(1-naphthyl)-4H,6H-pyrrolo[1,2-a][4,1]benzoxazepin-4-yl]acetyl}-4-piperidinyl)acetic Acid]", "values": [
      {"measurement": "pIC50", "setting": "rat squalene synthetase", "value": 9.25}
    ]},
    {"smiles": "COc1cccc([C@H]2O[C@H](CCn3cc(C(=O)O)cn3)c3nccn3-c3ccc(Cl)cc32)c1OC", "note": "[Example 263, 1-{2-[(4R,6S)-8-Chloro-6-(2,3-dimethoxyphenyl)-4H,6H-imidazo[1,2-a][4,1]benzoxazepin-4-yl]ethyl}-1H-pyrazole-4-carboxylic Acid]", "values": [
      {"measurement": "pIC50", "setting": "rat squalene synthetase", "value": 8.41},
      {"measurement": "Liver-cholesterol synthesis inhibitory effect", "setting": "[1]", "value": 84, "unit": "%"}
    ]},
    {"smiles": "COc1cccc(C2SC(CC(=O)O)c3nnc(C(F)(F)F)n3-c3ccc(Cl)cc32)c1OC", "note": "(stereo not drawn) [Example 341, 2-[8-Chloro-6-(2,3-dimethoxyphenyl)-1-(trifluoromethyl)-4H,6H-[1,2,4]triazolo[4,3-a][4,1]benzothiazepin-4-yl]acetic Acid]", "values": [
      {"measurement": "pIC50", "setting": "rat squalene synthetase", "value": 8.34},
      {"measurement": "Liver-cholesterol synthesis inhibitory effect", "setting": "[1]", "value": 90, "unit": "%"}
    ]}
  ]
}
